Experimental data as given in the supplement of paper PMC6723410.

Tested on: GUMC-403
Experiment: viability at highest tested concentration (max response) relative to DMSO (% of DMSO control); higher = less cytotoxic
Conditions: library / dose series: MIPE library, 11-point 1:3 dilution, 48 h
Summary of the method: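 Viability at the highest tested concentration is given relative to vehicle control. For this, conditionally reprogrammed patient-derived GUMC-403 papilloma cells at 700/well in 1536-well plates were exposed to 23 nL of pinned compound for 48 h. Luminescence from CellTiter-Glo was read on a ViewLux and scaled between empty wells (0%) and vehicle wells (100%).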

## CC(C)N(CCCNC(=O)Nc1ccc(C(C)(C)C)cc1)C[C@H]1O[C@@H](n2cc(Br)c3c(N)ncnc32)[C@H](O)[C@@H]1O
Top concentration 46.1 µM
  viability: 89.1

## NC[C@H](O)c1ccc(O)c(O)c1
Top concentration 46.1 µM
  viability: 113

## Cc1noc(N[S+](=O)([O-])c2ccc(N)cc2)c1C
Top concentration 46.1 µM
  viability: 130

## O=C(O)c1cc(/N=N/c2ccc([S+](=O)([O-])Nc3ccccn3)cc2)ccc1O
Top concentration 46.1 µM
  viability: 121

## CNC(=O)c1ccc(-c2cnc3ncc(Cc4ccc5ncccc5c4)n3n2)cc1F
Top concentration 46.1 µM
  viability: 103

## C#C[C@]1(O)CC[C@H]2[C@@H]3CCc4cc(OC)ccc4[C@H]3CC[C@@]21C
Top concentration 46.1 µM
  viability: 88.2

## COc1ccc(/C=C\c2cc(OC)c(OC)c(OC)c2)cc1O
Top concentration 46.1 µM
  viability: 93.7

## OC1=C(C=CC=C1)C2=CC=C(C=C2)C3=CSC4=C3C(=C(/C#N)C(=O)N4)/O
Top concentration 46.1 µM
  viability: 125

## Cn1cc(-c2cnn3c(N)c(Br)c([C@H]4CCCNC4)nc23)cn1
Top concentration 46.1 µM
  viability: 100

## C[C@H]1C[C@@H]2[C@H](CC[C@@]3(C)[C@H]2CC[C@]3(OC(C)=O)C(C)=O)[C@@]\4(C)CCC(=O)\C=C14
Top concentration 46.1 µM
  viability: 147

## C[N+]1(C)[C@@H]2C[C@@H](OC(=O)[C@H](CO)c3ccccc3)C[C@H]1[C@@H]1O[C@@H]12.[Br-]
Top concentration 46.1 µM
  viability: 120

## CC(COc1ccccc1)N(CCCl)Cc1ccccc1 (stereo not given)
Top concentration 46.1 µM
  viability: 122

## CCCN[S+](=O)([O-])Nc1ncnc(OCCOc2ncc(Br)cn2)c1-c1ccc(Br)cc1
Top concentration 46.1 µM
  viability: 122

## CCn1c(C(=O)N(C2CC2)C2CC2)cc2c3c(ncn3C)c(Nc3cc(C)n(C)n3)nc21
Top concentration 46.1 µM
  viability: 118

## Cc1cnc(-c2cc(N3CCN(C(=O)CC[S+](C)(=O)[O-])CC3)ncc2Cl)c(C)c1
Top concentration 46.1 µM
  viability: 72.3

## OCCN(CCO)c1nc(N2CCCCC2)c2nc(N(CCO)CCO)nc(N3CCCCC3)c2n1
Top concentration 46.1 µM
  viability: 77

## CO[C@@H](C(=O)N1Cc2[nH]nc(NC(=O)c3ccc(N4CCN(C)CC4)cc3)c2C1)c1ccccc1
Top concentration 46.1 µM
  viability: 63.5

## Cn1c(CCCC(=O)O)nc2cc(N(CCCl)CCCl)ccc21
Top concentration 46.1 µM
  viability: 124

## CC1(C)O[C@@H]2C[C@H]3[C@@H]4CCC5=CC(=O)C=C[C@]5(C)[C@@]4(F)[C@@H](O)C[C@]3(C)[C@]2(C(=O)CO)O1
Top concentration 46.1 µM
  viability: 117

## O=c1cc(-c2ccc(O)c(O)c2)oc2cc(O)cc(O)c12
Top concentration 46.1 µM
  viability: 115

## Nc1ncnc2c1ncn2[C@@H]1O[C@H](CO)[C@@H](O)[C@H]1O
Top concentration 46.1 µM
  viability: 132

## O=C(O)c1ccc2cc(-c3ccc(O)c(C45CC6CC(CC(C6)C4)C5)c3)ccc2c1
Top concentration 46.1 µM
  viability: 109

## CN1CCCN(C(=O)c2cccc(-c3ccc(/C=C4/C(=O)Nc5ccc(Cl)cc54)o3)c2)CC1
Top concentration 46.1 µM
  viability: 97.7

## Cc1cccc(CN2CCN(C(c3ccccc3)c3ccc(Cl)cc3)CC2)c1 (stereo not given)
Top concentration 46.1 µM
  viability: 87.2

## CN(C)C[C@@H]1CC[N]2C=C(C3=C2C=CC=C3)C/4=C(/C(=O)NC4=O)C5=C[N](CCO1)C6=C5C=CC=C6
Top concentration 46.1 µM
  viability: 89.8

## C[C@H]1CC2C3CCC/4=C/C(=O)/C=C\[C@]4(C)[C@@]3(F)[C@@H](O)C[C@]2(C)[C@@]1(O)C(=O)CO (stereo not given in full)
Top concentration 46.1 µM
  viability: 127

## CC(C)C[C@H](CC(=O)O)C(=O)N[C@@H](Cc1c[nH]c2ccccc12)C(=O)N[C@@H](C)c1ccccc1
Top concentration 46.1 µM
  viability: 108

## CCOC(=O)/C=C/[C@H](C[C@@H]1CCNC1=O)NC(=O)[C@@H](CC(=O)[C@@H](NC(=O)c1cc(C)on1)C(C)C)Cc1ccc(F)cc1
Top concentration 46.1 µM
  viability: 142

## CC(=O)OC[C@@H]1O[C@H]([C@H](OC(C)=O)[C@@H]1OC(C)=O)N2\C=C/C(=O)NC2=O
Top concentration 46.1 µM
  viability: 110

## F\C1=C\NC(=O)NC1=O
Top concentration 46.1 µM
  viability: 109

## CCCCOc1ccc(C(=O)Nc2ccc(F)cc2F)cc1
Top concentration 46.1 µM
  viability: 101

## CC(C)(C)/[N+]([O-])=C/c1ccc([S+](=O)([O-])[O][Na])cc1[S+](=O)([O-])[O][Na]
Top concentration 46.1 µM
  viability: 84.5

## CC(C)[N+]1(C)C2CCC1CC(OC(=O)C(CO)c1ccccc1)C2.O.[Br-] (stereo not given)
Top concentration 46.1 µM
  viability: 109

## COc1ccc(C(CN(C)C)C2(O)CCCCC2)cc1 (stereo not given)
Top concentration 46.1 µM
  viability: 100

## O=C1CCc2ccc(OCCCCN3CCN(c4cccc(Cl)c4Cl)CC3)cc2N1
Top concentration 46.1 µM
  viability: 99.5

## CCOC(=O)c1ncn2c1CN(C)C(=O)c1cc(F)ccc1-2
Top concentration 46.1 µM
  viability: 108

## CC(C)(N)c1ccc(-c2nc3ccccc3nc2-c2ccccc2)cc1
Top concentration 46.1 µM
  viability: 116

## CC(=O)N(C)c1cccc(-c2ccnc3c(C(=O)c4cccs4)cnn23)c1
Top concentration 46.1 µM
  viability: 106

## NCCc1ccc(O)c(O)c1
Top concentration 46.1 µM
  viability: 108

## COC1CCC(CC1)N(C(=O)C2CCC(C)CC2)C3=C(SC(=C3)\C4=C\CCCC4)C(O)=O (stereo not given)
Top concentration 46.1 µM
  viability: 110

## CC/C=C\C[C@H]1C(=O)CC[C@@H]1CC(=O)OC
Top concentration 46.1 µM
  viability: 120

## CN(C)/N=N/c1nc[nH]c1C(N)=O
Top concentration 46.1 µM
  viability: 123

## c1ccc(-c2nn3c(c2-c2ccnc4cc(OCCN5CCOCC5)ccc24)CCC3)nc1
Top concentration 46.1 µM
  viability: 148

## O=C(Nc1cccnc1)N1CCC(Cc2cccc(Oc3ccc(C(F)(F)F)cn3)c2)CC1
Top concentration 46.1 µM
  viability: 112

## CC(=O)Nc1sc2c(c1-c1nc3ccccc3s1)CNC2
Top concentration 46.1 µM
  viability: 86.3

## CO[C@@H]1[C@@H](O)[C@H](O)[C@@H](n2c3c(Cl)cccc3c3c4c(c5c6cccc(Cl)c6[nH]c5c32)C(=O)NC4=O)O[C@H]1CO
Top concentration 46.1 µM
  viability: 112

## OC[C@H]1O[C@@H](Oc2ccc(O)cc2)[C@H](O)[C@@H](O)[C@@H]1O
Top concentration 46.1 µM
  viability: 99.9

## Cc1[nH]c(/C=C2\C(=O)Nc3ccccc32)c(C)c1CCC(=O)O
Top concentration 46.1 µM
  viability: 98.9

## CCC(C1CCC(C)C(O1)C(C)C(O)C(C)C(=O)C(CC)C2OC\3(O[C@]4(CC[C@@](C)(O4)C5CC[C@@](O)(CC)C(C)O5)C(O)\C=C3)C(C)CC2C)C([O-])=O (stereo not given in full)
Top concentration 46.1 µM
  viability: 76

## CNc1nccc(-c2cccnc2Oc2cc(C(=O)Nc3cccc(C(F)(F)F)c3)ccc2C)n1
Top concentration 46.1 µM
  viability: 98

## CCN[C@H]1C[C@H](C)[S+](=O)([O-])c2sc([S+](N)(=O)[O-])cc21
Top concentration 46.1 µM
  viability: 103

## Cc1ccc(-c2cc(C(F)(F)F)nn2-c2ccc([S+](N)(=O)[O-])cc2)cc1
Top concentration 46.1 µM
  viability: 114

## NC(=O)Nc1cc(-c2ccc(CN3CCOCC3)cc2)sc1C(N)=O
Top concentration 46.1 µM
  viability: 70.6

## C[C@@H](O)[C@@H]1NC(=O)[C@H](CCCCN)NC(=O)[C@@H](Cc2c[nH]c3ccccc23)NC(=O)[C@H](Cc2ccccc2)NC(=O)[C@@H](NC(=O)[C@H](N)Cc2ccccc2)CSSC[C@@H](C(=O)N[C@H](CO)[C@@H](C)O)NC1=O
Top concentration 46.1 µM
  viability: 89.7

## CC\12CCC(=O)\C=C1CCC3C2CCC4(C)C3CCC4(O)C#C (stereo not given)
Top concentration 46.1 µM
  viability: 103

## O=C(NCc1ccccc1)c1csc(Nc2ccncn2)n1
Top concentration 46.1 µM
  viability: 110

## Cc1c(C)c2c(c(C)c1O)CCC(C)(COc1ccc(CC3SC(=O)NC3=O)cc1)O2 (stereo not given)
Top concentration 46.1 µM
  viability: 82

## COc1ccc(C[C@@H](C)[C@@H](C)Cc2ccc(OC)c(OC)c2)cc1OC
Top concentration 46.1 µM
  viability: 122

## CC(C)C[C@H](NC(=O)[C@@H](O)[C@H](N)Cc1ccccc1)C(=O)O
Top concentration 46.1 µM
  viability: 102

## CC1(C)CC\C2=C(/O1)C3=C(C=CC=C3)C(=O)C2=O
Top concentration 46.1 µM
  viability: 123

## O=C(O)Cn1nnc(-c2cc(N3CCC(Oc4cc(F)ccc4Br)CC3)no2)n1
Top concentration 46.1 µM
  viability: 128

## C[C@@H](Oc1cc(-n2cnc3ccc(CN4CCN(C)CC4)cc32)sc1C(N)=O)c1ccccc1C(F)(F)F
Top concentration 46.1 µM
  viability: 47.4

## N=C1S/C(=C\c2ccc(-c3ccc4c(c3)C(=O)NC4=O)o2)C(=O)N1c1ccc(Br)cc1
Top concentration 46.1 µM
  viability: 142

## N#CCNC(=O)c1ccc(-c2ccnc(Nc3ccc(N4CCOCC4)cc3)n2)cc1
Top concentration 46.1 µM
  viability: 9.51

## CC(C)Cc1ccc(C(C)C(=O)O)cc1 (stereo not given)
Top concentration 23 µM
  viability: 103

## COC[C@@H](NC(C)=O)C(=O)NCc1ccccc1
Top concentration 46.1 µM
  viability: 133

## CC(=O)CC(C1=CC=CC=C1)C/2=C(O)/C3=CC=CC=C3OC2=O (stereo not given)
Top concentration 46.1 µM
  viability: 118

## CC(C)C(C)/C=C/C(C)C1CCC2C3=CC=C4CC(O)CCC4(C)C3CCC21C (stereo not given)
Top concentration 46.1 µM
  viability: 130

## CN1CCc2c(c3ccccc3n2Cc2ccc(C(=O)NO)cc2)C1
Top concentration 46.1 µM
  viability: 107

## COc1cc2ncnc(Nc3ccc(F)c(Cl)c3)c2cc1NC(=O)/C=C/CN1CCCCC1
Top concentration 46.1 µM
  viability: 63.8

## CCOc1cc(N)c(Cl)cc1C(=O)NCC1CN(Cc2ccc(F)cc2)CCO1 (stereo not given)
Top concentration 46.1 µM
  viability: 85.7

## CC(NC1=CC=CC=C1)C\2=C\C(=C/N3C(=O)\C=C(/N=C23)N4CCOCC4)C (stereo not given)
Top concentration 46.1 µM
  viability: 79.7

## CCN1CCCC1CNC(=O)c1cc([S+](N)(=O)[O-])ccc1OC (stereo not given)
Top concentration 46.1 µM
  viability: 134

## CC[C@]12CC[C@H]3[C@@H](CCC/4=C/C(=O)CC[C@H]34)[C@@H]1\C=C/[C@@]2(O)C#C
Top concentration 46.1 µM
  viability: 130

## C[C@]12CCC(=O)C=C1CC[C@@H]1[C@@H]2[C@@H](O)C[C@@]2(C)[C@H]1CC[C@]2(O)C(=O)CO
Top concentration 46.1 µM
  viability: 135

## N\C1=N\C2=C(N=C[N]2COC(CO)CO)C(=O)N1
Top concentration 46.1 µM
  viability: 43.9

## CC(/C=C1\SC(=S)N(CC(=O)O)C1=O)=C\c1ccccc1
Top concentration 46.1 µM
  viability: 132

## CN1C[C@H]2c3ccccc3Oc3ccc(Cl)cc3[C@@H]2C1
Top concentration 46.1 µM
  viability: 91.4

## Nc1nc(Nc2ccc([S+](N)(=O)[O-])cc2)nn1C(=O)c1c(F)cccc1F
Top concentration 46.1 µM
  viability: 111

## C=CC(=O)Nc1cccc(Sc2nc(Nc3ccc(N4CCN(C)CC4)cc3)ncc2Cl)c1
Top concentration 46.1 µM
  viability: 70.3

## CC(=O)N1CCN(c2ccc(OC[C@H]3CO[C@](Cn4ccnc4)(c4ccc(Cl)cc4Cl)O3)cc2)CC1
Top concentration 46.1 µM
  viability: 104

## C[C@@H](NC(=O)c1ncnc(N)c1Cl)c1ncc(C(=O)Nc2cc(C(F)(F)F)c(Cl)cn2)s1
Top concentration 46.1 µM
  viability: 109

## O=S(=O)([O-])CCS.[Na+]
Top concentration 46.1 µM
  viability: 147

## CC(C)c1ccc2c(c1)c(SC(C)(C)C)c(CC(C)(C)C(=O)[O-])n2Cc1ccc(Cl)cc1
Top concentration 46.1 µM
  viability: 115

## NC12CC3CC(CC(C3)C1)C2
Top concentration 46.1 µM
  viability: 136
